≈ marks a conversion by molar mass, not a printed value. Like-named read-outs stand apart in the source and are kept apart here.
Legend:
[1] = tested on: Human gastric adenocarcinoma (AGS) cells; assay: growth reduction of AGS cells; type: cell-based
Text: Hydrastis leaf extract produced activity slightly less than the control or root extract but contained one fifth of the berberine indicating synergistic and/or additive compounds exist in the leaf. Antineoplastic—Cancer Cell Cultures. This assay measures the ability of Hydrastis to stimulate or arrest metabolic activity of tumor cells. Human gastric adenocarcinoma (AGS), CaCo2 colon cancer cells and normal colon epithelial tissue (ATCC) will be grown in Petri plates on Dulbecco's Modified Eagle Medium (DME) with 4 mM L-glutamine, 4.5 g/l glucose and 10% fetal bovine serum. CRL 7368 Breast Cancer cells and CRL 7367 Fibroblast control cells will be grown in Petri plates on DME with 4 mM L-glutamine, 4.5 g/l glucose, 1.5 g/l sodium bicarbonate and 10% fetal bovine serum. A 95% confluent layer of healthy cells will be divided as follows: surface media will be poured from the plates so that the cells are not dislodged. Ten milliliters of sterile phosphate-buffered saline (PBS) will be added to the plates to rinse the cell layer and then discarded. […] Cellular release by the trypsin is indicated when the cell layer moves when the plate is tilted. Dislodged cells will be added to 15 ml sterile tubes containing 1 ml calf serum. […] The cellular pellet is suspended in 5 ml of medium by mixing. A cell suspension aliquot (0.1 ml) is added to 0.9 ml of 0.4% Trypan Blue and mixed. Cell counts will be made using a hemocytometer charged with the cell suspension. Aliquots of the cell suspension (based on cell count) will be added to Petri plates, then 15 ml of media will be added and the plates incubated at 37° C. in a CO2 incubator. Cells will be checked daily for contamination and morphology. Media will be replaced every 2 to 3 days with fresh medium. The Cell Titer 96® AQueous Non-radioactive Cell proliferation Assay manufactured by Promega, is a colorimetric method used to measure dehydrogenase activity found in metabolically active cells. The MTS is reduced to formazan in the presence of metabolically active cells and the absorbance of formazan is measured spectrophotometrically. Two days post subculture, cells will be rinsed twice with respective media, harvested, and the cell concentration adjusted to 1×10^5 cells/ml. Fifty μl of the cell suspension will be added to the individual wells of a 96-well microtiter plate. Each well will contain 50 μl of the test sample (extract) or standard reference drug. Plates will be incubated for 48 to 72 hr at 37° C. in a CO2 incubator. After incubation, 20 μl of MTS/PMS solution will be added, and the plates incubated for an additional 1 to 4 hr. At the end of the incubation period, absorbance will be recorded at 490 nm.

[2] = tested on: SA-K2068; assay: MIC against Staph. strain SA-K2068 (MDR efflux pump distinct from NorA); type: cell-based
Text: (§1) Additional preliminary data regarding the potential synergistic activity of Hydrastis leaf on two Staph. strains SA-1199B and SA-K2068 was developed using Hydrastis extracts. […]

[3] = tested on: SA-1199B; assay: MIC against Staph. strain SA-1199B (over expresses NorA MDR efflux protein); type: cell-based
Text: as §1

[4] = tested on: Giardia; conditions: three divided doses for 6 days; berberine 5 mg/kg/day, metronidazole 10 mg/kg/day; cited from earlier work
[5] = tested on: HT-1080 (human fibrosarcoma); conditions: cited from earlier work
[6] = tested on: murine leukemia L1210; conditions: cited from earlier work
[7] = tested on: Chang (normal) liver cells; conditions: cited from earlier work
[8] = tested on: SNU-638 (human stomach adenocarcinoma); conditions: cited from earlier work
[9] = hyperlipidemic hamsters; cited from earlier work
[10] = tested on: COX-2 transcriptional activity in human colon cancer cells; conditions: dose- and time-dependent; cited from earlier work
[11] = in 2.5 hrs; cited from earlier work
[12] = tested on: McF7, a breast epithelial cell line; assay: MTS cell proliferation assay, McF7; type: cell-based
Text: Another study at Clemson examined the anti-tumor properties of berberine when combined with pump inhibitory characteristics of leaf extracts from Hydrastis. This combination inhibited proliferation of both CaCo2, a colon epithelial cell line, and McF7, a breast epithelial cell line. […] Anti-tumor properties block uncontrolled growth, while pump inhibitory properties aid in lowering the dosage of drugs needed to treat the patient. MTS assay was used to measure cell proliferation. Cell proliferation of McF7 was reduced to 45% of the control when treated with 2% of berberine. […] However, a synergetic effect was observed when combining 0.5% berberine with 1.5% leaf extract. Proliferation of McF7 was reduced to 59% compared to the untreated cells. The Cell Titer 96® AQueous Non-radioactive Cell proliferation Assay manufactured by Promega, is a colorimetric method used to measure dehydrogenase activity found in metabolically active cells. The MTS is reduced to formazan in the presence of metabolically active cells and the absorbance of formazan is measured spectrophotometrically. Two days post subculture, cells will be rinsed twice with respective media, harvested, and the cell concentration adjusted to 1×10^5 cells/ml. Fifty μl of the cell suspension will be added to the individual wells of a 96-well microtiter plate. […] At the end of the incubation period, absorbance will be recorded at 490 nm.

[13] = tested on: CaCo2, a colon epithelial cell line; assay: MTS cell proliferation assay, CaCo2; type: cell-based
Procedure: Another study at Clemson examined the anti-tumor properties of berberine when combined with pump inhibitory characteristics of leaf extracts from Hydrastis. […] Anti-tumor properties block uncontrolled growth, while pump inhibitory properties aid in lowering the dosage of drugs needed to treat the patient.
MTS assay was used to measure cell proliferation.
The MTS is reduced to formazan in the presence of metabolically active cells and the absorbance of formazan is measured spectrophotometrically. Two days post subculture, cells will be rinsed twice with respective media, harvested, and the cell concentration adjusted to 1×10^5 cells/ml. Fifty μl of the cell suspension will be added to the individual wells of a 96-well microtiter plate. Each well will contain 50 μl of the test sample (extract) or standard reference drug. Plates will be incubated for 48 to 72 hr at 37° C. in a CO2 incubator. After incubation, 20 μl of MTS/PMS solution will be added, and the plates incubated for an additional 1 to 4 hr. At the end of the incubation period, absorbance will be recorded at 490 nm.

[14] = tested on: Bifidobacterium adolescentis, Lactobacillus acidophilus, and Lactobacillus casei; conditions: cited from earlier work
[15] = oral, 32 patients, 3 months; cited from earlier work
[16] = tested on: Streptococcus mutans; conditions: Hwang (2003); cited from earlier work
[17] = tested on: human gastric carcinoma SNU-5 cells; conditions: SNU-5 cell line; cited from earlier work
[18] = tested on: human tumour HeLa; conditions: cited from earlier work
[19] = tested on: 15 strains of Helicobacter pylori; conditions: Mahady, 2003; cited from earlier work
[20] = tested on: hepatoma HepG2 cells; conditions: cited from earlier work
[21] = tested on: transplanted B16 line; conditions: day 16, doses of 5 and 10 mg/kg; cited from earlier work
[22] = tested on: E. coli strain ORN178; assay: MIC and MBC against E. coli strain ORN178; type: cell-based; conditions: for concentration determined to be non-inhibitory (up to): inhibitor alone
Procedure: Minimum inhibition concentration (MIC) will be tested in appropriate liquid media in 96-well microtiter plates. Each well contains 5×10^5 CFU/ml of test bacteria, serially diluted extracts and medium. In some cases when chemical solvents are used, it will be tested simultaneously with the test compounds to ensure the absence of antimicrobial activity. Triplicate samples are to be performed.
After 10 min at 37° C., the treated bacterial (or fungal) culture will be diluted and viable colony counts determined. The ability of goldenseal extract in killing test organisms will be elucidated.
Antimicrobial Characteristics of Goldenseal: Antimicrobial activities of SHF NOP certified Hydrastis were evaluated and compared to that of pure chemical berberine sulfate and berberine chloride. […] The synergistic effects of berberine with the known MDR pump inhibitor (reserpine and orthovanadate) as well as Hydrastis root extracts with leaf extracts were also determined. Please refer to the Materials and Methods section for detailed protocol. All extracts were lyophilized and reconstituted in H2O.

[23] = tested on: Giardiasis; conditions: berberine 10 mg/kg/day for 10 days; metronidazole 20 mg/kg/day for 5-7 days; cited from earlier work
[24] = 10 μg/ml of reserpine or 2 mM of orthovanadate supplemented

## COc1ccc2cc3[n+](cc2c1OC)CCc1cc2c(cc1-3)OCO2 [Berberine chloride]
[1]; first volume column, unit μl, berberine chloride control 500 μg/ml
  % growth reduction of AGS cells: .7%
[1]; fourth volume column, unit μl
  % growth reduction of AGS cells: 2.6%
[1]; head printed '0 μl'
  % growth reduction of AGS cells: 4.2%
[1]; head printed '6 μl'
  % growth reduction of AGS cells: 2.1%
[1]; second volume column, unit μl
  % growth reduction of AGS cells: .5%
[1]; third volume column, unit μl
  % growth reduction of AGS cells: 3.7%

## O=C(O)c1cn(C2CC2)c2cc(N3CCNCC3)c(F)cc2c1=O [Ciprofloxacin]
[2]; read-out: SA K2068 MIC, +312.5 μg/mL leaf ext.
  MIC: 0.5 µg/mL
[2]; read-out: SA K2068 MIC, +625 μg/mL leaf ext.
  MIC: 0.5 µg/mL
[2]; read-out: SA K2068 MIC, +5~20 μg/mL Reserpine
  MIC: 0.5 µg/mL
[2]; read-out: SA K2068 MIC, agent alone
  MIC: 4 µg/mL
[3]; +312.5 μg/mL leaf ext.
  MIC: 2 µg/mL
[3]; +625 μg/mL leaf ext.
  MIC: 2 µg/mL
[3]; +1250 μg/mL leaf ext.
  MIC: < 0.5 µg/mL
[3]; +5~20 μg/mL Reserpine
  MIC: 1 µg/mL
[3]; agent alone
  MIC: 8 µg/mL

## COc1ccc2cc3[n+](cc2c1OC)CCc1cc2c(cc1-3)OCO2 [berberine]
[4]
  subjects Giardia-free upon stool analysis: 68%
  subjects asymptomatic / resolution of symptoms: 48%
[5]
  IC50: 3.2 µg/mL
[6]; Jantova, 2003
  IC50: less than 4 microg mL(−1)
[6]; Kettman, 2004
  IC50: less than 4 microg/ml
[7]
  cytotoxicity: ineffective
[8]
  IC50: 3.4 µg/mL
[9]
  increase in hepatic LDLR mRNA: 3.5 fold
  increase in hepatic LDLR protein: 2.6 fold
  reduction of LDL-cholesterol: 42%
  reduction of serum cholesterol: 40%
[10]
  concentrations that inhibit COX-2 transcriptional activity: higher than 0.3 microM
[11]
  absorbed in the intestine: less than 5%
[12]; 0.5% berberine combined with 1.5% leaf extract
  Proliferation of McF7 compared to the untreated cells: 59%
[12]; treated at a concentration of 2%
  Cell proliferation of McF7, % of the control: 45%
[13]; combination of 0.5% berberine and 0.5% leaf extract
  cell proliferation rate, CaCo2: 48%
[13]; treated with 0.5%
  cell proliferation, CaCo2: 75%
[14]
  inhibition of "friendly" bacteria: weak or no inhibition
[15]
  reduction of LDL-cholesterol: 25%
  reduction of serum cholesterol: 29%
  reduction of triglycerides: 35%
[16]
  Minimum Inhibitory Concentration (MIC): 125 µg/mL
[17]
  IC50: 48 µM
[18]; Jantova, 2003
  IC50: less than 4 microg mL(−1)
[18]; Kettman, 2004
  IC50: less than 4 microg/ml
[19]
  MIC50: 12.5 µg/mL
[20]
  cytotoxicity: significant cytotoxicity
[21]
  tumor volume: significant reduction
[22]; [24]
  MBC of berberine reduced to: ¼
  MIC of berberine reduced by: half
[22]; Escherichia coli, ORN178, berberine alone, read-out: MBC (μg/ml berberine)
  MBC: 125 µg/mL
[22]; Escherichia coli, ORN178, berberine alone, read-out: MIC (μg/ml berberine)
  MIC: 62.5 µg/mL
[23]
  negative stool specimens after 10 days: Ninety
  remained negative one month later: 83%

## COc1ccc2c(c1OC)C(=O)O[C@@H]2[C@H]1c2cc3c(cc2CCN1C)OCO3 [beta-hydrastine]
[19]
  MIC50: 100.0 µg/mL (≈ 261 µM)

## Cc1ncc([N+](=O)[O-])n1CCO [metronidazole]
[4]
  subjects Giardia-free upon stool analysis: All
  subjects asymptomatic / resolution of symptoms: 33%
[23]
  negative stool specimens after 10 days: 95%
  remained negative one month later: 90%

## [O]=[V]([O-])([O-])[O-] [orthovanadate]
[22]
  concentration determined to be non-inhibitory (up to): ≤ 4 mM

## COC(=O)[C@H]1[C@H]2C[C@@H]3c4[nH]c5cc(OC)ccc5c4CCN3C[C@H]2C[C@@H](OC(=O)c2cc(OC)c(OC)c(OC)c2)[C@@H]1OC [reserpine]
[22]
  concentration determined to be non-inhibitory (up to): Up to 5000 μg/ml
